Experimental data as given in patent US3940479A (Meiji Seika Kaisha, Ltd., priority 1974, dated 1976).

Tested on: Bacillus polymyxa BN-109
Assay: Sensitivity of producing strain BN-109 towards antibiotics (disc method)
Format: cell-based
Description: 14. Sensitivity towards antibiotics (disc method):

Row | Compound | Sensitivity towards antibiotics
1 | CC[C@H]1OC(=O)[C@H](C)[C@@H](O[C@H]2C[C@@](C)(OC)[C@@H](O)[C@H](C)O2)[C@H](C)[C@@H](O[C@@H]2O[C@H](C)C[C@H](N(C)C)[C@H]2O)[C@](C)(O)C[C@@H](C)C(=O)[C@H](C)[C@@H](O)[C@]1(C)O [erythromycin] | Sensitive
2 | CC1(C)S[C@@H]2[C@H](NC(=O)Cc3ccccc3)C(=O)N2[C@H]1C(=O)O [penicillin] | Sensitive
3 | colistin | Resistant
4 | O=C(Cc1cccs1)N[C@@H]1C(=O)N2C(C(=O)[O-])=C(C[n+]3ccccc3)CS[C@H]12 [cephalolidin] | Sensitive
5 | O=C(N[C@H](CO)[C@H](O)c1ccc([N+](=O)[O-])cc1)C(Cl)Cl [chloramphenical] | Sensitive
6 | CCn1cc(C(=O)O)c(=O)c2ccc(C)nc21 [nalidixic acid] | Sensitive
7 | NC[C@H]1O[C@H](O[C@H]2[C@H](O)[C@@H](O[C@H]3O[C@H](CO)[C@@H](O)[C@H](N)[C@H]3O)[C@H](N)C[C@@H]2N)[C@H](O)[C@@H](O)[C@@H]1O [kanamycin] | Sensitive
8 | Polymyxin B | Resistant
9 | [H]/N=C(/N)N[C@H]1[C@H](O)[C@@H](O)[C@H](O[C@@H]2O[C@@H](C)[C@](O)(C=O)[C@H]2O[C@@H]2O[C@@H](CO)[C@H](O)[C@@H](O)[C@@H]2NC)[C@@H](N/C(N)=N\[H])[C@@H]1O [Streptomycin] | Sensitive
10 | CN(C)C1C(=O)C(C(N)=O)=C(O)C2(O)C(=O)C3=C(O)c4c(O)cccc4C(C)(O)C3CC12 (centres unmarked) [tetracyclin] | Sensitive
11 | NC[C@H]1O[C@H](O[C@H]2[C@H](O[C@@H]3O[C@H](CO)[C@@H](O)[C@H]3O)[C@@H](O)[C@H](N)C[C@@H]2N)[C@H](N)[C@@H](O)[C@@H]1O [vistamycin] | Sensitive
